Data published in ChEMBL document CHEMBL6182905, “Fluorinated sulfonamide-flavonoid derivatives as novel Keap1-Nrf2 inhibitors: Potent induction of cytoprotective gene HO-1 in vivo” (Eur J Med Chem, 2025).
Calls of active or inactive are those of the source. The calls are words filed in the database; no cut-off is given here.

How the values were obtained:
[1] = biological target: T1, Nuclear factor erythroid 2-related factor 2 (Mus musculus) (UniProt Q60795); experiment: Activation of Nrf2 in LPS-stimulated mouse AML12 cells assessed as upregulation of GCLM mRNA expression by measuring fold change at 10 uM incubated for 16 hrs relative to sulforaphane; type: cell-based; settings: filed as activator
T1 sequence (whole entry): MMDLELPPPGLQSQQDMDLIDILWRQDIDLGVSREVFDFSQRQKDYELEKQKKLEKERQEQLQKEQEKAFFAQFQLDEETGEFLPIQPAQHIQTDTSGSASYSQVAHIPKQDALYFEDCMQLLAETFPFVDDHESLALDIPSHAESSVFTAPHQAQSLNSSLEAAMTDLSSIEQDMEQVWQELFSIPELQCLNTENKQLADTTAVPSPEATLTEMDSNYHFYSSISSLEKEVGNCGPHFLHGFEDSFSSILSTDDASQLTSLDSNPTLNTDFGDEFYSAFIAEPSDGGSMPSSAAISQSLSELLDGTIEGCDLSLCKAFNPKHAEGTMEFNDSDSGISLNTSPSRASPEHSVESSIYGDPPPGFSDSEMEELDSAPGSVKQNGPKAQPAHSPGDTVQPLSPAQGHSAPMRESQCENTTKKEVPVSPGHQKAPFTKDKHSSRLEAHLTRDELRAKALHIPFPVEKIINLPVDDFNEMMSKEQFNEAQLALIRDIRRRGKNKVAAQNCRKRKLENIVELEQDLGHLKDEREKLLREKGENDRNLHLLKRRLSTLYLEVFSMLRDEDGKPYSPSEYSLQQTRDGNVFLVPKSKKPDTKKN

[2] = Elimination half life in Sprague-Dawley rat at 1 mg/kg, iv; type: ADME, organism-based; settings: in vivo, read-out: beta t1/2 (converted)
Mus musculus [3] = experiment: Anti-inflammatory activity in APAP-induced C57BL/6 mouse model of acute liver injury assessed as reduction in macrophage aggregation in liver at 12.5 to 25 mg/kg, ip measured after 12 hrs by F4/80 staining based analysis; type: functional, organism-based; settings: dose 12.5-25 mg/kg
Mus musculus [4] = experiment: In vivo inhibition of Keap1/Nrf2 protein-protein interaction in APAP-induced male C57BL/6 mouse model of acute liver injury administered intraperitoneally and measured after 12 hrs by co-immunoprecipitation analysis; type: functional, organism-based; settings: dose 12.5-25 mg/kg, route ip
[5] = biological target: T1, Nuclear factor erythroid 2-related factor 2 (Mus musculus); experiment: Activation of Nrf2 in LPS-stimulated mouse AML12 cells assessed as upregulation of GCLM protein level incubated for 16 hrs by Western blot analysis; type: cell-based; settings: filed as activator, dose 0.5-10 µM
[6] = biological target: T1, Nuclear factor erythroid 2-related factor 2 (Mus musculus); experiment: Activation of Nrf2 in LPS-stimulated mouse AML12 cells assessed as upregulation of HO-1 protein level incubated for 16 hrs by Western blot analysis; type: cell-based; settings: filed as activator, dose 0.5-10 µM
[7] = Toxicity in C57BL/6J mouse assessed as histopathological change in renal tissue at 25 mg/kg, ip by H and E staining based analysis; type: organism-based; settings: in vivo
[8] = Cmax in Sprague-Dawley rat at 10 mg/kg, po; type: ADME, organism-based; settings: in vivo
[9] = AUC (0 to t) last in Sprague-Dawley rat at 10 mg/kg, po; type: ADME, organism-based; settings: in vivo
Mus musculus [10] = experiment: Anti-inflammatory activity in APAP-induced C57BL/6 mouse model of acute liver injury assessed as reduction in TNFalpha level in serum at 12.5 to 25 mg/kg, ip measured after 12 hrs by ELISA; type: functional, organism-based; settings: dose 12.5-25 mg/kg
Mus musculus [11] = experiment: Hepatoprotective activity in APAP-induced male C57BL/6 mouse model of acute liver injury assessed as attenuation of nitric oxide (NO) level in liver at 12.5 to 25 mg/kg, ip measured after 12 hrs; type: functional, organism-based; settings: dose 12.5-25 mg/kg
[12] = Elimination half life in Sprague-Dawley rat at 10 mg/kg, po; type: ADME, organism-based; settings: in vivo, read-out: beta t1/2 (converted)
[13] = Tmax in Sprague-Dawley rat at 1 mg/kg, iv; type: ADME, organism-based; settings: in vivo
Mus musculus [14] = experiment: Hepatoprotective activity in APAP-induced male C57BL/6 mouse model of acute liver injury assessed as reduction in cell apoptosis in liver at 12.5 to 25 mg/kg, ip measured after 12 hrs by TUNEL assay; type: functional, organism-based; settings: dose 12.5-25 mg/kg
[15] = biological target: T1, Nuclear factor erythroid 2-related factor 2 (Mus musculus); experiment: Activation of Nrf2 in LPS-stimulated mouse AML12 cells assessed as upregulation of Akr1c1 mRNA expression by measuring fold change at 10 uM incubated for 16 hrs relative to sulforaphane; type: cell-based; settings: filed as activator
Mus musculus [16] = experiment: Hepatoprotective activity in APAP-induced Nrf2 knockout male C57BL/6 mouse model of acute liver injury assessed as reduction in liver damage at 25 mg/kg, ip preadministered with compound followed by APAP induction and measured after 12 hrs by H and E staining based analysis; type: functional, organism-based
[17] = Drug concentration in plasma of APAP-induced acute liver injury male C57BL/6 mouse model at 25 mg/kg, ip pre-administered with compound for 1 hr followed by APAP induction and measured after 12 hrs by Mass spectrometric analysis; type: ADME, organism-based
[18] = biological target: T1, Nuclear factor erythroid 2-related factor 2 (Mus musculus); experiment: Activation of Nrf2 in LPS-stimulated mouse AML12 cells assessed as upregulation of HO-1 mRNA expression by measuring fold change at 10 uM incubated for 16 hrs relative to sulforaphane; type: cell-based; settings: filed as activator
[19] = Cmax in Sprague-Dawley rat at 1 mg/kg, iv; type: ADME, organism-based; settings: in vivo
Mus musculus [20] = experiment: Anti-inflammatory activity in APAP-induced C57BL/6 mouse model of acute liver injury assessed as reduction in IL-6 level in serum at 12.5 to 25 mg/kg, ip measured after 12 hrs by ELISA; type: functional, organism-based; settings: dose 12.5-25 mg/kg
Mus musculus [21] = experiment: Anti-inflammatory activity in APAP-induced Nrf2 knockout male C57BL/6 mouse model of acute liver injury assessed as increase in F4/80 positive cells in liver at 25 mg/kg, ip preadministered with compound followed by APAP induction and measured after 12 hrs by staining based analysis; type: functional, organism-based
[22] = Toxicity in C57BL/6J mouse assessed as histopathological change in respiratory tissue at 25 mg/kg, ip by H and E staining based analysis; type: organism-based; settings: in vivo
[23] = Drug concentration in liver of APAP-induced acute liver injury male C57BL/6 mouse model at 12.5 mg/kg, ip pre-administered with compound for 1 hr followed by APAP induction and measured after 12 hrs by Mass spectrometric analysis; type: ADME, organism-based; settings: read-out: Ct
Mus musculus [24] = experiment: Hepatoprotective activity in APAP-induced male C57BL/6 mouse model of acute liver injury assessed as reduction in pathological damage in liver at 12.5 to 25 mg/kg, ip measured after 12 hrs by H and E staining based analysis; type: functional, organism-based; settings: dose 12.5-25 mg/kg

fold change (FC) [1]: 2.3
half-life [2]: 327 min
Activity [5]: Dose-dependent-effect
Activity [6]: Dose-dependent-effect
Cmax [8]: 1300 ng/mL
AUC(0-t) [9]: 7690 ng·h/mL
half-life [12]: 208 min
Tmax [13]: 10.2 min
fold change (FC) [15]: 1.8
fold change (FC) [18]: 3.4
Cmax [19]: 1050 ng/mL
SMILES: COc1ccc(-c2cc(=O)c3ccc(NS(=O)(=O)c4ccc(F)cc4)cc3o2)cc1
Activity (Mus musculus [3]): Active
inhibition (Mus musculus [4]): Dose-dependent-effect
Activity [7]: Non-toxic
Activity (Mus musculus [10]): Active
Activity (Mus musculus [11]): Active
Activity (Mus musculus [14]): Active
Activity (Mus musculus [16]): inactive
concentration at 13 h [17]: 155 ng/mL
Activity (Mus musculus [20]): Active
Activity (Mus musculus [21]): inactive
Activity [22]: Non-toxic
concentration at 13 h [23]: 175 ng/g
Activity (Mus musculus [24]): Active
